Drawing on patent publication US10730911B2, “Backbone-cyclized peptidomimetics with GLP-1R modulating activity” (POLYPHOR AG, priority 2015, dated 2020), this text covers EC50 for 14 molecules.

Where a SMILES comes first, the peptide text is derived from it. [ ]: non-standard residue; d: D form. The star is where a group is joined. Trp(5-OH) = N[C@@H](Cc1c[nH]c2ccc(O)cc12)C(=O)O; 3Pal = N[C@@H](Cc1cccnc1)C(=O)O; Aic = NC1(C(=O)O)Cc2ccccc2C1; Phg = N[C@H](C(=O)O)c1ccccc1; Ac6c = NC1(C(=O)O)CCCCC1; Ac5c = NC1(C(=O)O)CCCC1; Aib = CC(C)(N)C(=O)O; Bn = c1ccc(C*)cc1

In the test the target is T1, human glucagon-like peptide-1 receptor (GLP-1R) (Homo sapiens, UniProt P43220).
T1 construct: host or cells: CHO chAMPion cells
T1 sequence (P43220 24-463): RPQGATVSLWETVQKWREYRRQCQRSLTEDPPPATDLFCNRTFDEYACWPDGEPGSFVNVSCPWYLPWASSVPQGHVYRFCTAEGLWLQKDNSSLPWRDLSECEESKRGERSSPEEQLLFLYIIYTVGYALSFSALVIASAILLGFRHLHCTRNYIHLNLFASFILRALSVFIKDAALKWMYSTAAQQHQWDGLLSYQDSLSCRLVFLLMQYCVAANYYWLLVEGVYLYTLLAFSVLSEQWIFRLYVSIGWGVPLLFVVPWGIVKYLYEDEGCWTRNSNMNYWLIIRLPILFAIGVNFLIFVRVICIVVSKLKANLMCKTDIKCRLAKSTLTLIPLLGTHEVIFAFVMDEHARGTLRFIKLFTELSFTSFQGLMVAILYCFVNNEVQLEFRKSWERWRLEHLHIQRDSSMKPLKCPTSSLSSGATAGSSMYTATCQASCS
In words: Human GLP-1 receptor cell-based assay (flash luminescence, Target Activation phase). Particulars: CHO chAMPion cells stably co-expressing human GLP-1R, Photina and cAMP-activated calcium channel; agonist activity; normalization by forskolin at 10 μM; ^a) values from single experiment; read-out: EC50 (μM) Target Activation (TA). The source says: CHO chAMPion cells (Axxam SpA; S. Corazza, Assay Drug Dev. Technol. 2009, 7, 304-307) stably co-expressing the human glucagon-like peptide-1 receptor (GLP-1R), the Ca^2+-sensitive photoprotein PHOTINA® (S. Bovolenta et al., J. Biomol. Screen. 2007, 12, 694-704) and a mutated cAMP-activated calcium ion channel (WO2004/083803 A2) were used to monitor GLP-1R signaling after stimulation with an agonist. Activation of the Gas-coupled GPCR GLP-1R was monitored by measuring the flash luminescence of the Ca^2+-sensitive photoprotein as reporter system with FLIPR^TETRA screening instrumentation (Molecular Devices) upgraded with an ICCD Camera (MDC). For data quality check and data analysis the Genedata SCREENER® software was used.
The reference agonist GLP-1 (glucagon-like peptide-1 amide fragment 7-36) and forskolin were purchased from Sigma (cat. G8147 and F6886, respectively) and prepared according to each ligand's specifications. All handling of ligands were done to ensure proper control throughout the experiments. The steps of the implemented workflow and data analysis are mainly as follows:
Stably transfected chAMPion cells are seeded 10000 c/w in 384 MTP in Dulbecco's MEM/nutrient mix F12 (BioWhittaker cat. BE04-687F/U1; 500 mL) supplemented with sodium pyruvate (BioWhittaker cat. BE13-115E; 5 mL of 100 mM solution), HEPES (BioWhittaker cat. BE17-737E; 6.5 mL of 1M solution), sodium bicarbonate (BioWhittaker cat. BE17-613E; 25 mL of 7.5% solution), fetal bovine serum (Euroclone cat. ECS 0180L; 50 mL), penicillin-streptomycin (BioWhittaker cat. DE17-602E; 5 mL of 100×solution), 1 mg/mL G418 (selection antibiotic for GLP-1R) and 200 μg/mL hygromycin in 25 μL/well for 24 hours. On the day of the experiment, plates are removed from the incubator, freed from the growth medium, equilibrated at room temperature for 1 h, loaded with 30 μl/well of Ca^2+ free Tyrode's buffer containing 20 μM coelentrazine and 500 μM IBMX, and incubated for 4 hours at room temperature.
All compounds were tested at 8 concentrations, starting from 50 μM in quadruplicate, intra-plate (dilution step 1:2.15) to determine EC50 values. After incubation, the volume in all the wells is flattened to 20 αL by aspiration with a CYBIO®-VARIO pipettor. First Injection (10 μL of test compounds in Ca^2+ free Tyrode's buffer, DMSO 0.5% v/v and BSA 0.01%; or 10 μL of reference compounds GLP-1 or forskolin in Ca′ free Tyrode's buffer, DMSO 0.5% v/v and BSA 0.01%) is performed by the FLIPR^TETRA and the kinetic response is optionally monitored over a period of 60 seconds. Incubation for 30 minutes at room temperature is followed by the Second Injection (Tyrode's buffer+10 mM CaCl2)) and the kinetic response is monitored over a period of 60 seconds.
The kinetic response is divided into two distinct phases: monitoring the kinetic response after the First Injection, termed Compound Addition (CA), and monitoring the kinetic response after the Second Injection of 10 mM CaCl2, termed Target Activation (TA). Agonist activity of compounds is evaluated in the Target Activation (TA) phase and it is based on normalization to TA activation by forskolin at 10 μM or GLP-1 at 3.16 nM (EC100)
A good correlation was observed between EC50, data normalized by forskolin and by GLP-1.
The term EC50 denotes the midpoint of the concentration-response curve. Turning to `CC(C)C[C@@H]1NC(=O)[C@H](CCC(=O)O)NC(=O)[C@H](Cc2ccccc2)NC(=O)C2(CCCCC2)NC(=O)[C@H]2CCCN2C(=O)[C@H](c2ccccc2)NC(=O)[C@H](CCC(=O)O)NC(=O)[C@H](Cc2c[nH]c3ccccc23)NC(=O)[C@H](C)NC(=O)[C@H](Cc2ccc(O)cc2)NC1=O` [compound 50, cyclo(-Phe-Glu-Leu-Tyr-Ala-Trp-Glu-Phg-^DPro-Chx-)] (cyclo(FELYAWE[Phg][dP][Ac6c])), the EC50 is 2.4 µM.
With `C[C@@H]1NC(=O)[C@H](Cc2ccc(O)cc2)NC(=O)[C@H](CCC(N)=O)NC(=O)[C@H](Cc2ccccc2)NC(=O)[C@H](Cc2ccccc2)NC(=O)C2(CCCCC2)NC(=O)[C@H]2CCCN2C(=O)[C@H](CCCNC(=N)N)NC(=O)[C@H](CCC(=O)O)NC(=O)[C@H](Cc2c[nH]c3ccccc23)NC1=O` [compound 10, cyclo(-Phe-Phe-Gln-Tyr-Ala-Trp-Glu-Arg-^DPro-Chx-)] (cyclo(FFQYAWER[dP][Ac6c])) the figure was 0.39 ± 0.23 µM; with `C[C@@H]1NC(=O)[C@H](Cc2ccc(O)cc2)NC(=O)[C@H](CCC(N)=O)NC(=O)[C@H](Cc2cccnc2)NC(=O)[C@H](Cc2ccccc2)NC(=O)C2(CCCCC2)NC(=O)[C@H]2CCCN2C(=O)[C@H](Cc2ccc(O)cc2)NC(=O)[C@H](CCC(=O)O)NC(=O)[C@H](Cc2c[nH]c3ccccc23)NC1=O` [compound 2, cyclo(-Phe-3Pal-Gln-Tyr-Ala-Trp-Glu-Tyr-^DPro-Chx-)] (cyclo(F[3Pal]QYAWEY[dP][Ac6c])), 0.28 ± 0.26 µM; with `C[C@@H]1NC(=O)[C@H](Cc2ccc(O)cc2)NC(=O)[C@H](CCC(N)=O)NC(=O)[C@H](Cc2c[nH]c3ccccc23)NC(=O)[C@H](Cc2ccccc2)NC(=O)C2(CCCCC2)NC(=O)[C@H]2CCCN2C(=O)[C@H](Cc2c[nH]c3ccc(O)cc23)NC(=O)[C@H](CCC(=O)O)NC(=O)[C@H](Cc2c[nH]c3ccccc23)NC1=O` [compound 18, cyclo(-Phe-Trp-Gln-Tyr-Ala-Trp-Glu-Trp(5OH)-^DPro-Chx-)] (cyclo(FWQYAWE[Trp(5-OH)][dP][Ac6c])), 0.82 ± 0.55 µM.
Next, `CC(C)C[C@@H]1NC(=O)[C@H](Cc2c[nH]c3ccccc23)NC(=O)[C@H](Cc2ccccc2)NC(=O)C2(CCCCC2)NC(=O)[C@H]2CCCN2C(=O)[C@H](Cc2ccc(O)cc2)NC(=O)[C@H](CCC(=O)O)NC(=O)[C@H](Cc2c[nH]c3ccccc23)NC(=O)[C@H](C)NC(=O)[C@H](Cc2ccc(O)cc2)NC1=O` [compound 12, cyclo(-Phe-Trp-Leu-Tyr-Ala-Trp-Glu-Tyr-^DPro-Chx-)] (cyclo(FWLYAWEY[dP][Ac6c])): 0.48 ± 0.24 µM; `CC(C)C[C@@H]1NC(=O)[C@H](CC(C)C)NC(=O)[C@H](CCC(=O)O)NC(=O)[C@H](Cc2ccccc2)NC(=O)C2(Cc3ccccc3C2)NC(=O)[C@H]2CCCN2C(=O)[C@H](Cc2ccccc2)NC(=O)[C@H](CCC(=O)O)NC(=O)[C@H](Cc2c[nH]c3ccccc23)NC(=O)[C@H](C)NC1=O` [compound 52, cyclo(-Phe-Glu-Leu-Leu-Ala-Trp-Glu-Phe-^DPro-Ind-)] (cyclo(FELLAWEF[dP][Aic])): 0.82 ± 0.25 µM; `COc1ccc(C[C@@H]2NC(=O)[C@H](CC(C)C)NC(=O)[C@H](CCC(=O)O)NC(=O)[C@H](Cc3ccccc3)NC(=O)C3(CCCCC3)NC(=O)[C@H]3CCCN3C(=O)[C@H](Cc3ccc(O)cc3)NC(=O)[C@H](CCC(=O)O)NC(=O)[C@H](Cc3c[nH]c4ccccc34)NC(=O)[C@H](C)NC2=O)cc1` [compound 29, cyclo(-Phe-Glu-Leu-Tyr(Me)-Ala-Trp-Glu-Tyr-^DPro-Chx-)] (cyclo(FELY(Me)AWEY[dP][Ac6c])): 0.62 µM.
Next, `C[C@@H]1NC(=O)[C@H](Cc2ccc(O)cc2)NC(=O)[C@H](CCC(N)=O)NC(=O)[C@H](Cc2ccc(OCc3ccccc3)cc2)NC(=O)[C@H](Cc2ccccc2)NC(=O)C2(CCCCC2)NC(=O)[C@H]2CCCN2C(=O)[C@H](Cc2ccc(O)cc2)NC(=O)[C@H](CCC(=O)O)NC(=O)[C@H](Cc2c[nH]c3ccccc23)NC1=O` [compound 5, cyclo(-Phe-Tyr(Bn)-Gln-Tyr-Ala-Trp-Glu-Tyr-^DPro-Chx-)] (cyclo(FY(Bn)QYAWEY[dP][Ac6c])): 0.15 ± 0.05 µM.
On to `CC(C)C[C@@H]1NC(=O)[C@H](CCC(=O)O)NC(=O)[C@H](Cc2ccccc2)NC(=O)C2(CCCC2)NC(=O)[C@H]2CCCN2C(=O)[C@H](Cc2ccccc2)NC(=O)[C@H](CCC(=O)O)NC(=O)[C@H](Cc2c[nH]c3ccccc23)NC(=O)[C@H](C)NC(=O)[C@H](Cc2ccc(O)cc2)NC1=O` [compound 48, cyclo(-Phe-Glu-Leu-Tyr-Ala-Trp-Glu-Phe-^DPro-Cyp-)] (cyclo(FELYAWEF[dP][Ac5c])), for which the EC50 was 0.9 ± 0.18 µM.
With `COc1ccc(C[C@@H]2NC(=O)[C@H](CCC(=O)O)NC(=O)[C@H](Cc3c[nH]c4ccccc34)NC(=O)[C@H](C)NC(=O)[C@H](Cc3ccc(O)cc3)NC(=O)[C@H](CCC(N)=O)NC(=O)[C@H](Cc3c[nH]c4ccccc34)NC(=O)[C@H](Cc3ccccc3)NC(=O)C3(CCCCC3)NC(=O)[C@H]3CCCN3C2=O)cc1` [compound 9, cyclo(-Phe-Trp-Gln-Tyr-Ala-Trp-Glu-Tyr(Me)-^DPro-Chx-)] (cyclo(FWQYAWEY(Me)[dP][Ac6c])), the EC50 amounted to 0.8 ± 0.69 µM.
For the molecule `CC(C)C[C@@H]1NC(=O)[C@H](CC(C)C)NC(=O)[C@H](CCC(=O)O)NC(=O)[C@H](Cc2ccccc2)NC(=O)C(C)(C)NC(=O)[C@H]2CCCN2C(=O)[C@H](Cc2ccccc2)NC(=O)[C@H](CCC(=O)O)NC(=O)[C@H](Cc2c[nH]c3ccccc23)NC(=O)[C@H](C)NC1=O` [compound 45, cyclo(-Phe-Glu-Leu-Leu-Ala-Trp-Glu-Phe-^DPro-Aib-)] (cyclo(FELLAWEF[dP][Aib])), the EC50 was 1.8 µM.
Next, `CC(C)C[C@@H]1NC(=O)[C@H](Cc2c[nH]cn2)NC(=O)[C@H](Cc2ccccc2)NC(=O)C(C)(C)NC(=O)[C@H]2CCCN2C(=O)[C@H](Cc2ccc(O)cc2)NC(=O)[C@H](CCC(N)=O)NC(=O)[C@H](Cc2c[nH]c3ccccc23)NC(=O)[C@H](C)NC(=O)[C@H](Cc2ccc(O)cc2)NC1=O` [compound 51, cyclo(-Phe-His-Leu-Tyr-Ala-Trp-Gln-Tyr-^DPro-Aib-)] (cyclo(FHLYAWQY[dP][Aib])): 3.3 µM; `C[C@@H]1NC(=O)[C@H](Cc2ccc(O)cc2)NC(=O)[C@H](CCC(N)=O)NC(=O)[C@H](Cc2c[nH]c3ccc(O)cc23)NC(=O)[C@H](Cc2ccccc2)NC(=O)C2(CCCCC2)NC(=O)[C@H]2CCCN2C(=O)[C@H](Cc2ccc(O)cc2)NC(=O)[C@H](CCC(=O)O)NC(=O)[C@H](Cc2c[nH]c3ccccc23)NC1=O` [compound 35, cyclo(-Phe-Trp(5OH)-Gln-Tyr-Ala-Trp-Glu-Tyr-^DPro-Chx-)] (cyclo(F[Trp(5-OH)]QYAWEY[dP][Ac6c])): 1.1 ± 0.5 µM.
Regarding `C[C@@H]1NC(=O)[C@H](Cc2ccc(O)cc2)NC(=O)[C@H](CCC(N)=O)NC(=O)[C@H](Cc2c[nH]c3ccccc23)NC(=O)[C@H](Cc2ccccc2)NC(=O)C2(CCCCC2)NC(=O)[C@H]2CCCN2C(=O)[C@H](Cc2ccc(OCc3ccccc3)cc2)NC(=O)[C@H](CCC(=O)O)NC(=O)[C@H](Cc2c[nH]c3ccccc23)NC1=O` [compound 22, cyclo(-Phe-Trp-Gln-Tyr-Ala-Trp-Glu-Tyr(Bn)-^DPro-Chx-)] (cyclo(FWQYAWEY(Bn)[dP][Ac6c])), the EC50 was 0.72 ± 0.4 µM.
